Patent US6355799B1, “Substituted benzene compounds, process for their preparation, and herbicidal and defoliant compositions containing them” (ISK Americas Incorporated, priority 1997, dated 2002)

Assays:
Type in all cases: in vivo
[1] = test system: ivyleaf morningglory (Ipomoea hederacea, IPOHE); experiment: Post-emerge test, greenhouse herbicide activity screening; details: post-emerge, 14 days after application, rating scale 0-100
Outline: (§1)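 Visual ratings on a 0-100 scale (0 no damage, 100 all plants dead) were taken at 14 days after treatment. Rates of 15-1000 g ai/ha in acetone, 187 l/ha, were sprayed onto soil one day after planting (pre-emerge) or onto 2-3 leaf plants with 0.25% v/v surfactant (post-emerge).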

[2] = test system: common ragweed (Ambrosia artemisizfolia L., AMBEL); experiment: as above; details: post-emerge, 14 days after application, rating scale 0-100
Outline: as §1

[3] = test system: barnyardgrass (Echinochloa crus-galli, ECHCG); experiment: as above; details: post-emerge, 14 days after application, rating scale 0-100
Outline: as §1

[4] = test system: sicklepod (Cassia obtusifolia, CASOB); experiment: as above; details: post-emerge, 14 days after application, rating scale 0-100
Outline: as §1

[5] = test system: lambsquarters (Chenopodium album, CHEAL); experiment: as above; details: post-emerge, 14 days after application, rating scale 0-100
Outline: as §1

[6] = test system: large crabgrass (Digitaria sanguinalis, DIGSA); experiment: as above; details: post-emerge, 14 days after application, rating scale 0-100
Outline: as §1

[7] = test system: velvetleaf (Abutilon theophrasti, ABUTH); experiment: as above; details: post-emerge, 14 days after application, rating scale 0-100
Outline: as §1

[8] = test system: redroot pigweed (Amaranthus retroflexus, AMARE); experiment: as above; details: post-emerge, 14 days after application, rating scale 0-100
Outline: as §1

[9] = test system: green foxtail (Setaria viridis, SETVI); experiment: as above; details: post-emerge, 14 days after application, rating scale 0-100
Outline: as §1

[10] = test system: johnsongrass (Sorghum halepense, SORHA); experiment: as above; details: post-emerge, 14 days after application, rating scale 0-100
Outline: as §1

[11] = test system: upland rice (Oryza sp., var. Tebonnet, RICE); experiment: Post-emerge test, crop safety; details: post-emerge, 14 days after application, rating scale 0-100
Outline: (§2)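 Compounds in acetone were track-sprayed at 15-1000 g ai/ha (187 l/ha) on sandy loam pots: pre-emerge one day after seeding, post-emerge at 2-3 leaf stage with 0.25% v/v non-ionic surfactant. Phytotoxicity was rated 14 days later on a 0 (no damage) to 100 (complete death) scale.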

[12] = test system: field corn (Zea mays L., var. Dekalb 535, CORN); experiment: Post-emerge test, crop safety; details: post-emerge, 14 days after application, rating scale 0-100
Outline: as §2

[13] = test system: upland rice (Oryza sp., var. Tebonnet, RICE); experiment: Pre-emerge test, crop safety; details: rated 14 days after application, 0 = no damage, 100 = complete death
Outline: (§3)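 Sandy loam pots; pre-emerge: sown 1 d pre-spray, surface-watered after, then bottom-watered. Post-emerge: sown 8–21 d before, 2–3 leaf stage, + 0.25% v/v NIS, bottom-watered. Acetone, 187 l/ha track spray, 15–1000 g ai/ha. 0–100 injury score, day 14.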

[14] = test system: field corn (Zea mays L., var. Dekalb 535, CORN); experiment: Pre-emerge test, crop safety; details: rated 14 days after application, 0 = no damage, 100 = complete death
Outline: as §3

[15] = test system: ivyleaf morningglory (Ipomoea hederacea, IPOHE); experiment: Pre-emerge test, greenhouse herbicide activity screening; details: rated 14 days after application, 0 = no damage, 100 = complete death
Outline: as §2

[16] = test system: barnyardgrass (Echinochloa crus-galli, ECHCG); experiment: as above; details: rated 14 days after application, 0 = no damage, 100 = complete death
Outline: as §2

[17] = test system: sicklepod (Cassia obtusifolia, CASOB); experiment: as above; details: rated 14 days after application, 0 = no damage, 100 = complete death
Outline: as §2

[18] = test system: lambsquarters (Chenopodium album, CHEAL); experiment: as above; details: rated 14 days after application, 0 = no damage, 100 = complete death
Outline: as §2

[19] = test system: large crabgrass (Digitaria sanguinalis, DIGSA); experiment: as above; details: rated 14 days after application, 0 = no damage, 100 = complete death
Outline: as §2

[20] = test system: velvetleaf (Abutilon theophrasti, ABUTH); experiment: as above; details: rated 14 days after application, 0 = no damage, 100 = complete death
Outline: as §2

[21] = test system: green foxtail (Setaria viridis, SETVI); experiment: as above; details: rated 14 days after application, 0 = no damage, 100 = complete death
Outline: as §2

[22] = test system: johnsongrass (Sorghum halepense, SORHA); experiment: as above; details: rated 14 days after application, 0 = no damage, 100 = complete death
Outline: as §2

[23] = test system: redroot pigweed (Amaranthus retroflexus, AMARE); experiment: as above; details: rated 14 days after application, 0 = no damage, 100 = complete death
Outline: as §3

## COc1c(Cl)cc(F)c(-n2c(=O)cc(C(F)(F)F)n(C)c2=O)c1NC(=O)c1ccc2c(c1)OCO2 [2-73]
[1]; 63 g ai/ha
  phytotoxicity rating IPOHE: 100
[1]; 250 g ai/ha
  phytotoxicity rating IPOHE: 100
[2]; 63 g ai/ha
  phytotoxicity rating AMBEL: 100
[2]; 250 g ai/ha
  phytotoxicity rating AMBEL: 100
[3]; 63 g ai/ha
  phytotoxicity rating ECHCG: 30
[3]; 250 g ai/ha
  phytotoxicity rating ECHCG: 60
[4]; 63 g ai/ha
  phytotoxicity rating CASOB: 60
[4]; 250 g ai/ha
  phytotoxicity rating CASOB: 100
[5]; 63 g ai/ha
  phytotoxicity rating CHEAL: 70
[5]; 250 g ai/ha
  phytotoxicity rating CHEAL: 95
[6]; 63 g ai/ha
  phytotoxicity rating DIGSA: 30
[6]; 250 g ai/ha
  phytotoxicity rating DIGSA: 30
[7]; 63 g ai/ha
  phytotoxicity rating ABUTH: 100
[7]; 250 g ai/ha
  phytotoxicity rating ABUTH: 100
[8]; 63 g ai/ha
  phytotoxicity rating AMARE: 100
[8]; 250 g ai/ha
  phytotoxicity rating AMARE: 100
[9]; 63 g ai/ha
  phytotoxicity rating SETVI: 50
[9]; 250 g ai/ha
  phytotoxicity rating SETVI: 90
[10]; 63 g ai/ha
  phytotoxicity rating SORHA: 10
[10]; 250 g ai/ha
  phytotoxicity rating SORHA: 50
[11]; 63 g ai/ha
  phytotoxicity rating RICE: 20
[11]; 250 g ai/ha
  phytotoxicity rating RICE: 70
[12]; 63 g ai/ha
  phytotoxicity rating CORN: 25
[12]; 250 g ai/ha
  phytotoxicity rating CORN: 50
[13]; 63 g ai/ha
  Pre-emerge phytotoxicity rating (0-100), crop damage, RICE: 80
[13]; 250 g ai/ha
  Pre-emerge phytotoxicity rating (0-100), crop damage, RICE: 100
[14]; 63 g ai/ha
  Pre-emerge phytotoxicity rating (0-100), crop damage, CORN: 50
[14]; 250 g ai/ha
  Pre-emerge phytotoxicity rating (0-100), crop damage, CORN: 95
[15]; 63 g ai/ha
  Pre-emerge Herbicidal Activity, phytotoxicity rating (0-100), IPOHE: 90
[15]; 250 g ai/ha
  Pre-emerge Herbicidal Activity, phytotoxicity rating (0-100), IPOHE: 100
[16]; 63 g ai/ha
  Pre-emerge Herbicidal Activity, phytotoxicity rating (0-100), ECHCG: 90
[16]; 250 g ai/ha
  Pre-emerge Herbicidal Activity, phytotoxicity rating (0-100), ECHCG: 100
[17]; 63 g ai/ha
  Pre-emerge Herbicidal Activity, phytotoxicity rating (0-100), CASOB: 100
[17]; 250 g ai/ha
  Pre-emerge Herbicidal Activity, phytotoxicity rating (0-100), CASOB: 100
[18]; 63 g ai/ha
  Pre-emerge Herbicidal Activity, phytotoxicity rating (0-100), CHEAL: 100
[18]; 250 g ai/ha
  Pre-emerge Herbicidal Activity, phytotoxicity rating (0-100), CHEAL: 100
[19]; 63 g ai/ha
  Pre-emerge Herbicidal Activity, phytotoxicity rating (0-100), DIGSA: 100
[19]; 250 g ai/ha
  Pre-emerge Herbicidal Activity, phytotoxicity rating (0-100), DIGSA: 100
[20]; 63 g ai/ha
  Pre-emerge Herbicidal Activity, phytotoxicity rating (0-100), ABUTH: 100
[20]; 250 g ai/ha
  Pre-emerge Herbicidal Activity, phytotoxicity rating (0-100), ABUTH: 100
[21]; 63 g ai/ha
  Pre-emerge Herbicidal Activity, phytotoxicity rating (0-100), SETVI: 100
[21]; 250 g ai/ha
  Pre-emerge Herbicidal Activity, phytotoxicity rating (0-100), SETVI: 100
[22]; 63 g ai/ha
  Pre-emerge Herbicidal Activity, phytotoxicity rating (0-100), SORHA: 75
[22]; 250 g ai/ha
  Pre-emerge Herbicidal Activity, phytotoxicity rating (0-100), SORHA: 100
[23]; 63 g ai/ha
  Pre-emerge Herbicidal Activity, phytotoxicity rating (0-100), AMARE: 100
[23]; 250 g ai/ha
  Pre-emerge Herbicidal Activity, phytotoxicity rating (0-100), AMARE: 100

## COc1c(Cl)cc(F)c(-n2c(=O)cc(C(F)(F)F)n(C)c2=O)c1NC(=O)c1cccc2ccccc12 [2-74]
[1]; 63 g ai/ha
  phytotoxicity rating IPOHE: 60
[1]; 250 g ai/ha
  phytotoxicity rating IPOHE: 60
[2]; 63 g ai/ha
  phytotoxicity rating AMBEL: 70
[2]; 250 g ai/ha
  phytotoxicity rating AMBEL: 95
[3]; 63 g ai/ha
  phytotoxicity rating ECHCG: 0
[3]; 250 g ai/ha
  phytotoxicity rating ECHCG: 0
[4]; 63 g ai/ha
  phytotoxicity rating CASOB: 30
[4]; 250 g ai/ha
  phytotoxicity rating CASOB: 70
[5]; 63 g ai/ha
  phytotoxicity rating CHEAL: 70
[5]; 250 g ai/ha
  phytotoxicity rating CHEAL: 70
[6]; 63 g ai/ha
  phytotoxicity rating DIGSA: 0
[6]; 250 g ai/ha
  phytotoxicity rating DIGSA: 0
[7]; 63 g ai/ha
  phytotoxicity rating ABUTH: 100
[7]; 250 g ai/ha
  phytotoxicity rating ABUTH: 100
[8]; 63 g ai/ha
  phytotoxicity rating AMARE: 95
[8]; 250 g ai/ha
  phytotoxicity rating AMARE: 100
[9]; 63 g ai/ha
  phytotoxicity rating SETVI: 0
[9]; 250 g ai/ha
  phytotoxicity rating SETVI: 20
[10]; 63 g ai/ha
  phytotoxicity rating SORHA: 0
[10]; 250 g ai/ha
  phytotoxicity rating SORHA: 0
[11]; 63 g ai/ha
  phytotoxicity rating RICE: 25
[11]; 250 g ai/ha
  phytotoxicity rating RICE: 50
[12]; 63 g ai/ha
  phytotoxicity rating CORN: 0
[12]; 250 g ai/ha
  phytotoxicity rating CORN: 15
[13]; 63 g ai/ha
  Pre-emerge phytotoxicity rating (0-100), crop damage, RICE: 30
[13]; 250 g ai/ha
  Pre-emerge phytotoxicity rating (0-100), crop damage, RICE: 60
[14]; 63 g ai/ha
  Pre-emerge phytotoxicity rating (0-100), crop damage, CORN: 0
[14]; 250 g ai/ha
  Pre-emerge phytotoxicity rating (0-100), crop damage, CORN: 15
[15]; 63 g ai/ha
  Pre-emerge Herbicidal Activity, phytotoxicity rating (0-100), IPOHE: 0
[15]; 250 g ai/ha
  Pre-emerge Herbicidal Activity, phytotoxicity rating (0-100), IPOHE: 50
[16]; 63 g ai/ha
  Pre-emerge Herbicidal Activity, phytotoxicity rating (0-100), ECHCG: 0
[16]; 250 g ai/ha
  Pre-emerge Herbicidal Activity, phytotoxicity rating (0-100), ECHCG: 100
[17]; 63 g ai/ha
  Pre-emerge Herbicidal Activity, phytotoxicity rating (0-100), CASOB: 40
[17]; 250 g ai/ha
  Pre-emerge Herbicidal Activity, phytotoxicity rating (0-100), CASOB: 70
[18]; 63 g ai/ha
  Pre-emerge Herbicidal Activity, phytotoxicity rating (0-100), CHEAL: 100
[18]; 250 g ai/ha
  Pre-emerge Herbicidal Activity, phytotoxicity rating (0-100), CHEAL: 100
[19]; 63 g ai/ha
  Pre-emerge Herbicidal Activity, phytotoxicity rating (0-100), DIGSA: 20
[19]; 250 g ai/ha
  Pre-emerge Herbicidal Activity, phytotoxicity rating (0-100), DIGSA: 100
[20]; 63 g ai/ha
  Pre-emerge Herbicidal Activity, phytotoxicity rating (0-100), ABUTH: 100
[20]; 250 g ai/ha
  Pre-emerge Herbicidal Activity, phytotoxicity rating (0-100), ABUTH: 100
[21]; 63 g ai/ha
  Pre-emerge Herbicidal Activity, phytotoxicity rating (0-100), SETVI: 70
[21]; 250 g ai/ha
  Pre-emerge Herbicidal Activity, phytotoxicity rating (0-100), SETVI: 100
[22]; 63 g ai/ha
  Pre-emerge Herbicidal Activity, phytotoxicity rating (0-100), SORHA: 0
[22]; 250 g ai/ha
  Pre-emerge Herbicidal Activity, phytotoxicity rating (0-100), SORHA: 100
[23]; 63 g ai/ha
  Pre-emerge Herbicidal Activity, phytotoxicity rating (0-100), AMARE: 100
[23]; 250 g ai/ha
  Pre-emerge Herbicidal Activity, phytotoxicity rating (0-100), AMARE: 100
